Tested on: in vivo rabbit eyes
Assay: In vivo prevention of PCO after cataract operation in rabbit eyes
Conditions: bumetanide and hyperosmotic NaCl
Protocol: The experimental group includes sixteen rabbit eyes and the control group includes four rabbit eyes. A sham cataract operation is performed on the control animals. The therapy is introduced to the others.
The pupil of each rabbit eye is preoperatively dilated with topical G Phenylephrine 10% (Alcon Labs., Inc., China) and G Cyclopentolate 1% (Bausch & Lomb Pharm., Inc., USA) three times in one hour. The rabbits are anesthetized with ketamine hydrochloride (5 mg kg-1) and xylazine hydrochloride (2 mg kg-1) and placed on an operating table. A topical anesthetic (Dieaine hydrochloride 1%) is used every five minutes on two occasions. A wire lid speculum is placed to hold the eyelids open.
A 3.2 mm scleral tunnel incision into the eye is formed at the temporal limbus. The anterior chamber is maintained with viscoelastic substances and a 4-5 mm diameter continuous curvilinear capsularhexis (CCC) is made on the anterior surface of the lens to open its bag. The treatment solution is first introduced in the LECs by hydrodissection. This ensures that the treatment fluid immediately reaches under the entire anterior capsule/LECs. This process allows for (i) separation of the lens cortex from the capsule and lens epithelium, making removal of the lens cortex easier at a later stage of the operation and (ii) the LECs to be exposed to the treatment for enough time (more than five minutes in total time).
The crystalline lens is then removed using phacoemulsification (Universal II, Alcon Labs., Inc., China). The remaining cortex is aspirated thoroughly and removed as completely as possible to expose the LECs. The lens capsular bag is then partially filed with viscoelastic material in order to maintain its shape. The viscoelastic material should not cover the LECs when the treatment solution is applied.
The treatment is spread over the inner surface of the anterior capsular bag (where the LECs attach). The anterior capsular is continuously filled by using a syringe with a bent needle. Care is taken not to over flow the bag. After the treatment solution covered the capsule bag, it is left for five minutes and then removed using a syringe.
In a few cases, IOLs are inserted. […] At the same time, the incision is enlarged to 6.0 mm and a posterior ocular lens (IOLs) (poly-methyl methacrylate, PMMA) with a 6.5 mm optic is prepared and placed into the capsular bag.
The wound is closed with or without suture.
At the completion of the surgical procedure, each rabbit eye receives subconjunctival dexamethasone (0.25 ml) and gentamicin (0.25 ml). Postoperatively, atropine sulphate 1% ophthalmic solution and neomycin sulphate-polymyxin sulphate-dexamethasone ophthalmic ointment are administered twice daily for three weeks.
The animals are evaluated for three weeks and ten weeks. […] All rabbits are evaluated by slitlamp and scored for ocular responses at 1 day and at 1, 2 and 3 weeks. (See FIG. 17, Table 1.) Three and ten weeks after surgery, the animals are anesthetized using a 2 ml intramuscular injection of 11:1 mixture of ketamine hydrochloride and xylazine 20 mg/ml and then killed with a 2 ml intravenous injection of sodium pentobarbital.
The eye globes are enucleated (some of them fixed in neutral buffered formalin 10% solution for 24 hours) and are bisected coronally just anterior to the equator. Gross examination is performed to assess. PCO development. Photographs are taken from behind (Miyake-Apple posterior photographic technique) by using a digital camera fitted to an operating microscope (Leica/Wild MZ-8, Vashaw Scientific, Inc.).
The extent and severity of PCO is scored (see FIG. 17, Table 1) according to methods reported in the literature. The lens capsules are then fixed and evaluated under a microscope (Olumpus, Optical Co. Ltd.) and photographed with a digital camera.

Q: Which results are given for `CCCCNc1cc(C(=O)O)cc(S(N)(=O)=O)c1Oc1ccccc1` [bumetanide]?
A: Soemmering's ring: Some degree of Soemmering's ring forms; cell proliferation on the lens anterior capsule (three weeks): not significant cell proliferation; development of CPCO and PPCO (three weeks follow up): no CPCO and PPCO develop
